According to patent US20200283532A1, “TUMOUR-TARGETING PEPTIDE VARIANTS” (Cancer Research Technology Limited, priority 2017, published 2020):
Read-outs that look alike come from different tables or passages of the source.

Tests used:
[1] = biological target: T1, αvβ6 integrin (A375Pβ6 cells) (Homo sapiens, UniProt P06756+P18564); experiment: Level of binding of biotinylated peptides to A375Pβ6 cells by flow cytometry; details: mean of up to four experiments; for A) Affinity: mean activity relative to biotinylated A20FMDV2 (100 nM): binding to A375Pβ6 at 100 nM, flow cytometry, commercial biotinylated A20FMDV2 = 1.00
T1 construct: expressed in transfected cells; host or cells: A375Pβ6 (transduced A375P melanoma cells; control line A375Ppuro)
T1 sequence (P06756 31-889 limits assumed, stated change not applied): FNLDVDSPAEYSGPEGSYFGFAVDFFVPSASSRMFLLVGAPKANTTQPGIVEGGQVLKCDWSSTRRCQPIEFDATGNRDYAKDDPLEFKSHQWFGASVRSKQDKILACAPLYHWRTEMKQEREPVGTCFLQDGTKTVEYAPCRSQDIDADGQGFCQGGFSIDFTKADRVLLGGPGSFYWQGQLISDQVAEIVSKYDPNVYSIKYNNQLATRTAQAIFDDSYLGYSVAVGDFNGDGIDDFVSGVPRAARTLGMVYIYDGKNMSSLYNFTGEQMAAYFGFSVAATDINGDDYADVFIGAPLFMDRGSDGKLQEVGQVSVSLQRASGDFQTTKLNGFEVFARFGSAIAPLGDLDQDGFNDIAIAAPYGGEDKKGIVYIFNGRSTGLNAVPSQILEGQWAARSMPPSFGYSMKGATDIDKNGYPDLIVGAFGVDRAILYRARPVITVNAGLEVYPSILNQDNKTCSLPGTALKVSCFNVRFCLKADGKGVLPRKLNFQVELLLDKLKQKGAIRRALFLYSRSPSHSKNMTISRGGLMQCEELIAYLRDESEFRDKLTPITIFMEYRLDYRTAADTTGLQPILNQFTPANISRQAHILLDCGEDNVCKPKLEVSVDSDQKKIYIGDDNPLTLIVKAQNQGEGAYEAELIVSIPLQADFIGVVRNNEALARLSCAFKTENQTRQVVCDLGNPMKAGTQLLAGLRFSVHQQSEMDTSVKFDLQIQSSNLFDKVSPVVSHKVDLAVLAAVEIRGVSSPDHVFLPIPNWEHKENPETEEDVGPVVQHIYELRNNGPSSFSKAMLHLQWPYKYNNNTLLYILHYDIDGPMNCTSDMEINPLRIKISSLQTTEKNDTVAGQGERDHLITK
T1 sequence (P06756 891-1048 limits assumed, stated change not applied): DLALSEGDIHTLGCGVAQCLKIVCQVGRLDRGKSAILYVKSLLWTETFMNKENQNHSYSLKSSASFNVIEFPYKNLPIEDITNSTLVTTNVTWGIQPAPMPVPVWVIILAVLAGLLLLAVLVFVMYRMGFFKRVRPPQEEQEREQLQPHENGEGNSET
T1 sequence (P18564 22-788, stated change not applied): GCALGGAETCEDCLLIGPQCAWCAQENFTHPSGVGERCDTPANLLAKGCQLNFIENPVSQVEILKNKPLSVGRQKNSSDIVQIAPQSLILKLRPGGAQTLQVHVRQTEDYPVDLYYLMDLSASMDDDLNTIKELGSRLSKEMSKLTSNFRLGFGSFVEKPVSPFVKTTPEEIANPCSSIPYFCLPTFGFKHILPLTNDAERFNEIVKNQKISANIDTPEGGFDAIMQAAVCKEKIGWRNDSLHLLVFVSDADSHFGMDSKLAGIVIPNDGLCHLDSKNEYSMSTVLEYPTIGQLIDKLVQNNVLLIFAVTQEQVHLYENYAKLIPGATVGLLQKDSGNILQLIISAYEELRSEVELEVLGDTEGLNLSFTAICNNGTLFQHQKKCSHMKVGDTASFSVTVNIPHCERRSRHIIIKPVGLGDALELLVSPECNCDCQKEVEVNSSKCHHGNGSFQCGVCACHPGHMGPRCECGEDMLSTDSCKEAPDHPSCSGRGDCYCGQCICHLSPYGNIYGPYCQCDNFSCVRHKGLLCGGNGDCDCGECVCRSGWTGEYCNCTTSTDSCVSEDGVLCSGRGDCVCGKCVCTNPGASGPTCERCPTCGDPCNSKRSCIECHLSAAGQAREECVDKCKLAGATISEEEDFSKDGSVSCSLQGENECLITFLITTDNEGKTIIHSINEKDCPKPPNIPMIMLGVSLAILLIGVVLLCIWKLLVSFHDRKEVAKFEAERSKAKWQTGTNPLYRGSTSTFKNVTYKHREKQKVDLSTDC

A375Pβ6 cells = format: cell-based
Procedure: Cells were trypsinised and resuspended into DMEM (serum-free media) to prepare a cell suspension of 4×10^6 cells/ml. From this point on everything was kept on ice. 50 μl of cell suspension were aliquoted into each flow tube. Peptides were diluted in ice-cold serum-free media to 200 nM giving the final concentration of 100 nM when 50 μl was added to the cell samples. The peptides were left on ice for 15 minutes then washed twice with flow media and centrifuged for 3 minutes at 1200 rpm in between each wash step. Mouse anti-biotin (50 μl at 1:200) was added to each sample for 15 minutes, then wash steps were repeated. Apart from the 0 time point, each of the time point samples were put in the incubator at 37° C. and at 15, 30 and 45 minutes the cells were fixed in 4% formaldehyde in PBS for 10 minutes, washed once in PBS and 0.1% Triton X-100 detergent added for 5 minutes, before washing in PBS again. Goat anti-mouse IgG conjugated to AlexaFLUOR 488 (1:250) was added (50 μl) to each sample and left for 15 minutes on ice in the dark. Samples were washed as above and resuspended to 30 μl. Samples were examined on an Imagestream X Mark II (Amnis, Merck) Imagestream images were assessed for internalisation compared with the 0 minute samples using on board software.
Internalisation Assay Method—Flow Cytometry
Cells were prepared as above except that no detergent was added prior to detecting the biotin with antibodies. Samples were analysed on a FACScalibur (Bekton-Dickinson) cytometer.
To assess ability to be internalized by cells at 37° C. (and thus potential vectors for therapies) we used Imagestream® cytometry and flow cytometry. Imagestream® takes a fluorescence image of each cell (FIG. 2C) enabling image analysis of the fluorescence on the surface versus the intracellular compartment. Histograms in FIG. 2C plot internalization relative to the 0 minute time point. For flow cytometry we monitored the loss of surface expression as the peptides were internalized.

[2] = test system: A375Pβ6 (αvβ6) and A375Puro (control) xenografts; experiment: Biodistribution of 111In-DTPA labelled peptides in tumour-bearing mice; format: in vivo, female CD1 Nu/Nu mice; details: 111In-DTPA peptide iv, mean ± SEM
Procedure: 2×10^6 cells in 100 μl were injected subcutaneously into the shoulders of female CD1 Nu/Nu mice. Tumours were grown subcutaneously on the left (A375Puro) and on the right (A375136) shoulder over two weeks. Once tumours had grown to approximately 5 mm diameter peptides were radiolabelled with Indium-111, and analysed by Radio-HPLC to determine labelling efficiency. The labelled peptides were diluted in sterile PBS/BSA and were dosed to give 0.3MBq per animal. Mice were then intravenously (tail-vein) injected with the radiolabelled peptide and are culled after 1 hour. Blood, organs and tumours were removed, weighed and residual activity was measured on a gamma counter (LKB Compugamma) the next day. Data were expressed as % Injected Dose/g tissue (% ID/g).
Immunocompromised mice (n=3-5) bearing A375Ppuro and A37546 tumours on opposite shoulders were given intravenous (iv) injections of […] of radiolabelled peptides 22-26 then killed 1 h later. Major organs and blood were collected immediately, weighed, and radioactivity determined. The data in Table 3 show the behaviour of the five DTPA-conjugated peptides tested; data are expressed as mean % injected dose/g tissue.

AcHN-NK(Biotin)VPNLRGDLQVLAQKVART-NH2 [Peptide 18]
A) Affinity: mean activity relative to biotinylated A20FMDV2 (100 nM) [1]: 1.25 ± 0.26
B) Internalisation: mean % internalisation at 45 min relative to biotinylated A20FMDV2 (100 nM) (A375Pβ6 cells): 0.87 ± 0.12
Relative Activity (A × B) (A375Pβ6 cells): 1.09
Relative Activity value higher than the control peptide (A375Pβ6 cells): 9%

AcHN-NK(Biotin)VPNLRGDLQVLAQKVART-OH [Peptide 16]
B) Internalisation: mean % internalisation at 45 min relative to biotinylated A20FMDV2 (100 nM) (A375Pβ6 cells): 1.05 ± 0.24
Relative Activity (A × B) (A375Pβ6 cells): 1.55
Relative Activity value higher than the control peptide (A375Pβ6 cells): 55%

DTPA-GNK(Biotin)VPNLRGDLQVLAQKVART-OH [Peptide 23]
A) Affinity: mean activity relative to biotinylated A20FMDV2 (100 nM) [1]: 1.28 ± 0.23
Relative Activity (A × B) (A375Pβ6 cells; binding affinity value multiplied by amount internalized, commercial biotinylated A20FMDV2 = 1.00): 1.24
B) Internalisation: mean % internalisation at 45 min relative to biotinylated A20FMDV2 (100 nM) (A375Pβ6 cells; flow cytometry, 100 nM, 45 min at 37° C., commercial biotinylated A20FMDV2 = 1.00): 0.97 ± 0.11
Bio-distribution, Blood ([2]; 1 h): 0.5 ± 0.16 % ID/g
Bio-distribution, Heart ([2]; 1 h): 0.6 ± 0.16 % ID/g
Bio-distribution, Intestines ([2]; 1 h): 3.8 ± 0.98 % ID/g
Bio-distribution, Liver ([2]; 1 h): 0.4 ± 0.06 % ID/g
Bio-distribution, Lung ([2]; 1 h): 4.4 ± 0.72 % ID/g
Bio-distribution, Muscle ([2]; 1 h): 0.8 ± 0.07 % ID/g
Bio-distribution, Pancreas ([2]; 1 h): 0.5 ± 0.13 % ID/g
Bio-distribution, Spleen ([2]; 1 h): 0.2 ± 0.07 % ID/g
Bio-distribution, Stomach ([2]; 1 h): 6.4 ± 2.33 % ID/g
Bio-distribution, Tail ([2]; 1 h): 4.3 ± 2.85 % ID/g
Bio-distribution, Tumour (Control) ([2]; A375Puro xenograft, mice culled after 1 h): 0.5 ± 0.15 % ID/g
Bio-distribution, Tumour (αvβ6) ([2]; A375Pβ6 xenograft, mice culled after 1 h): 3.7 ± 0.29 % ID/g

H2N-NK (Biotin) VPNLRGDLQV[norvaline]AQKVART-OH [Peptide 8]
A) Affinity: mean activity relative to biotinylated A20FMDV2 (100 nM) [1]: 0.77 ± 0.52
B) Internalisation: mean % internalisation at 45 min relative to biotinylated A20FMDV2 (100 nM) (A375Pβ6 cells): 1.09 ± 0.17
Relative Activity (A × B) (A375Pβ6 cells): 0.84

H2N-NK (Biotin) VPNLRGDLQV[tert-butyl-alanine]AQKVART-OH [Peptide 11]
A) Affinity: mean activity relative to biotinylated A20FMDV2 (100 nM) [1]: 0.60 ± 0.23
B) Internalisation: mean % internalisation at 45 min relative to biotinylated A20FMDV2 (100 nM) (A375Pβ6 cells): 1.03 ± 0.14
Relative Activity (A × B) (A375Pβ6 cells): 0.62

H2N-NK(Biotin)VPNLRGDLQVLAQ-N-MeKVART-OH [Peptide 6]
A) Affinity: mean activity relative to biotinylated A20FMDV2 (100 nM) [1]: 0.37 ± 0.12
B) Internalisation: mean % internalisation at 45 min relative to biotinylated A20FMDV2 (100 nM) (A375Pβ6 cells): 0.89 ± 0.32
Relative Activity (A × B) (A375Pβ6 cells): 0.32

H2N-NK(Biotin)VPNLRGDLQVLAQKVART-NH2 [Peptide 17]
B) Internalisation: mean % internalisation at 45 min relative to biotinylated A20FMDV2 (100 nM) (A375Pβ6 cells): 1.07 ± 0.40
Relative Activity (A × B) (A375Pβ6 cells): 1.31
Relative Activity value higher than the control peptide (A375Pβ6 cells): 31%

H2N-NK(Biotin)VPNLRGDLQVLAQKVART-OH [Peptide 1]
A) Affinity: mean activity relative to biotinylated A20FMDV2 (100 nM) [1]: 1.11 ± 0.15
B) Internalisation: mean % internalisation at 45 min relative to biotinylated A20FMDV2 (100 nM) (A375Pβ6 cells): 0.84 ± 0.14
Relative Activity (A × B) (A375Pβ6 cells): 0.93

H2N-NK(Biotin)VPNLRGDLQVLAQKVARt-OH [Peptide 20]
A) Affinity: mean activity relative to biotinylated A20FMDV2 (100 nM) [1]: 0.53 ± 0.44
B) Internalisation: mean % internalisation at 45 min relative to biotinylated A20FMDV2 (100 nM) (A375Pβ6 cells): 0.99 ± 0.25
Relative Activity (A × B) (A375Pβ6 cells): 0.53

H2N-NK(Biotin)VPNLRGDLQVLAQ[diaminopropionic acid]VART-OH [Peptide 5]
A) Affinity: mean activity relative to biotinylated A20FMDV2 (100 nM) [1]: 0.79 ± 0.14
B) Internalisation: mean % internalisation at 45 min relative to biotinylated A20FMDV2 (100 nM) (A375Pβ6 cells): 0.96 ± 0.31
Relative Activity (A × B) (A375Pβ6 cells): 0.76

H2N-NK(Biotin)VPNLRGDLQVLAQ[ornithine]VART-OH [Peptide 3]
A) Affinity: mean activity relative to biotinylated A20FMDV2 (100 nM) [1]: 1.12 ± 0.16
B) Internalisation: mean % internalisation at 45 min relative to biotinylated A20FMDV2 (100 nM) (A375Pβ6 cells): 0.86 ± 0.29
Relative Activity (A × B) (A375Pβ6 cells): 0.96

H2N-NK(Biotin)VPNLRGDLQVLAQkVART-OH [Peptide 2]
A) Affinity: mean activity relative to biotinylated A20FMDV2 (100 nM) [1]: 1.11 ± 0.15
B) Internalisation: mean % internalisation at 45 min relative to biotinylated A20FMDV2 (100 nM) (A375Pβ6 cells): 0.78 ± 0.15
Relative Activity (A × B) (A375Pβ6 cells): 0.87

H2N-NK(Biotin)VPNLRGDLQV[2-amino-3-ethylpentanoic acid]AQKVART-OH [Peptide 13]
A) Affinity: mean activity relative to biotinylated A20FMDV2 (100 nM) [1]: 0.70 ± 0.33
B) Internalisation: mean % internalisation at 45 min relative to biotinylated A20FMDV2 (100 nM) (A375Pβ6 cells): 0.52 ± 0.23
Relative Activity (A × B) (A375Pβ6 cells): 0.37

H2N-NK(Biotin)VPNLRGDLQV[adamantylglycine]AQKVART-OH [Peptide 15]
A) Affinity: mean activity relative to biotinylated A20FMDV2 (100 nM) [1]: 0.51 ± 0.28
B) Internalisation: mean % internalisation at 45 min relative to biotinylated A20FMDV2 (100 nM) (A375Pβ6 cells): 1.07 ± 0.18
Relative Activity (A × B) (A375Pβ6 cells): 0.55

H2N-NK(Biotin)VPNLRGDLQV[allylglycine]AQKVART-OH [Peptide 10]
A) Affinity: mean activity relative to biotinylated A20FMDV2 (100 nM) [1]: 0.58 ± 0.25
B) Internalisation: mean % internalisation at 45 min relative to biotinylated A20FMDV2 (100 nM) (A375Pβ6 cells): 0.82 ± 0.25
Relative Activity (A × B) (A375Pβ6 cells): 0.48

H2N-NK(Biotin)VPNLRGDLQV[aminoisobutyric acid]AQKVART-OH [Peptide 7]
A) Affinity: mean activity relative to biotinylated A20FMDV2 (100 nM) [1]: 1.07 ± 0.37
B) Internalisation: mean % internalisation at 45 min relative to biotinylated A20FMDV2 (100 nM) (A375Pβ6 cells): 1.11 ± 0.3
Relative Activity (A × B) (A375Pβ6 cells): 1.19

H2N-NK(Biotin)VPNLRGDLQV[cyclohexylalanine]AQKVART-OH [Peptide 14]
A) Affinity: mean activity relative to biotinylated A20FMDV2 (100 nM) [1]: 0.62 ± 0.06
B) Internalisation: mean % internalisation at 45 min relative to biotinylated A20FMDV2 (100 nM) (A375Pβ6 cells): 1.01 ± 0.32
Relative Activity (A × B) (A375Pβ6 cells): 0.62

H2N-NK(Biotin)VPNLRGDLQV[homoleucine]AQKVART-OH [Peptide 12]
A) Affinity: mean activity relative to biotinylated A20FMDV2 (100 nM) [1]: 0.45 ± 0.22
B) Internalisation: mean % internalisation at 45 min relative to biotinylated A20FMDV2 (100 nM) (A375Pβ6 cells): 0.66 ± 0.14
Relative Activity (A × B) (A375Pβ6 cells): 0.27

H2N-NK(Biotin)VPNLRGDLQV[norleucine]AQKVART-OH [Peptide 9]
A) Affinity: mean activity relative to biotinylated A20FMDV2 (100 nM) [1]: 1.16 ± 0.29
B) Internalisation: mean % internalisation at 45 min relative to biotinylated A20FMDV2 (100 nM) (A375Pβ6 cells): 1.15 ± 0.04
Relative Activity (A × B) (A375Pβ6 cells): 1.33

H2N-nK(Biotin)VPNLRGDLQVLAQKVART-OH [Peptide 19]
Average binding activity higher than the parent (commercially obtained biotinylated-A20FMDV2) ([1]; A375Pβ6, 100 nM): 43%
B) Internalisation: mean % internalisation at 45 min relative to biotinylated A20FMDV2 (100 nM) (A375Pβ6 cells): 0.89 ± 0.12
Relative Activity value higher than the control peptide (A375Pβ6 cells): 27%

H2N-nK(Biotin)VPNLRGDLQVLAQKVARt-OH [Peptide 21]
B) Internalisation: mean % internalisation at 45 min relative to biotinylated A20FMDV2 (100 nM) (A375Pβ6 cells): 0.87 ± 0.27
Relative Activity value higher than the control peptide (A375Pβ6 cells): 37%

N-NK(Biotin)VPNLRGDLQVLAQ[diaminobutyric acid]VART-OH [Peptide 4]
A) Affinity: mean activity relative to biotinylated A20FMDV2 (100 nM) [1]: 1.00 ± 0.07
B) Internalisation: mean % internalisation at 45 min relative to biotinylated A20FMDV2 (100 nM) (A375Pβ6 cells): 0.86 ± 0.29
Relative Activity (A × B) (A375Pβ6 cells): 0.86
